Assay results from publication PMC9975698, “Hyperoside alleviates toxicity of β-amyloid via endoplasmic reticulum-mitochondrial calcium signal transduction cascade in APP/PS1 double transgenic Alzheimer's disease mice” (Redox Biology, 2023).

Experiments:
[1] = tested on: APP/PS1 mice; assay: Fear-conditioning test; type: in vivo; conditions: HYP nasal, every 3 days, 8 weeks
Experimental: All animal care and experimental procedures were performed in accordance with the “Institutional Animal Care and User Committee Guidelines” of the Macau University of Science and Technology. APP/PSEN1 (APP/PS1) mice (N000175) were purchased from the Nanjing Institute of Biomedical Sciences, Nanjing University, China, weighing 25 ± 5 g. The animals were housed in a temperature-controlled room with a 12 h light/dark cycle and given ad libitum food and water. Male mice were randomly divided into the following 6 experimental groups. (a) wild-type group (n = 6), (b) APP/PS1 group (n = 6), (c) HYP (20 mg/kg group) (n = 7), (d) HYP (40 mg/kg) group (n = 8), (e) HYP (80 mg/kg) group (n = 8) and (f) memantine (MEM) (10 mg/kg) positive control group (n = 8). HYP was dissolved in the solvent containing 10% DMSO, 40% PEG300 and 5% Tween-80 in PBS, and administrated via nasal injection for every 3 days with a volume of 0.5 μL/g of body weight for 8 consecutive weeks. The fear conditioning test measures the ability of mice to learn and remember associations between aversive experiences and the environment. On the first day of the fear conditioning test (Yuyan, Shanghai, China), mice were placed in a chamber for 5 min to acclimatize and explore. […] Responses were recorded with a video camera and scored for resting time, which was defined as the absence of any movement other than breathing.

[2] = tested on: APP/PS1 mice; assay: Western blot of APP/GFAP/APP-β/BACE1 in cortex and hippocampus lysates; type: in vivo
Experimental: After HYP treatment, the cells were lysed with RIPA. Protein concentrations were determined by Bio-Rad protein assay (Bio-Rad Laboratories, CA, USA). After electrophoretic separation, the gels were blotted and stained with primary antibodies. Binding of antibodies was visualized with peroxidase-coupled secondary antibodies using ECL Western Blotting detection reagents (Invitrogen, Scotland, UK). Band intensities were quantified using ImageJ software. Data were obtained from three independent experiments. All animal care and experimental procedures were performed in accordance with the “Institutional Animal Care and User Committee Guidelines” of the Macau University of Science and Technology. APP/PSEN1 (APP/PS1) mice (N000175) were purchased from the Nanjing Institute of Biomedical Sciences, Nanjing University, China, weighing 25 ± 5 g. The animals were housed in a temperature-controlled room with a 12 h light/dark cycle and given ad libitum food and water. Male mice were randomly divided into the following 6 experimental groups. (a) wild-type group (n = 6), (b) APP/PS1 group (n = 6), (c) HYP (20 mg/kg group) (n = 7), (d) HYP (40 mg/kg) group (n = 8), (e) HYP (80 mg/kg) group (n = 8) and (f) memantine (MEM) (10 mg/kg) positive control group (n = 8). […]

[3] = Solubility in water; type: physicochemical
[4] = tested on: HT22 cells; assay: ATP content measurement by LC-MS/MS; type: cell-based; conditions: Aβ aggregates with HYP 20, 40, 80 μM, 24 h
Experimental: HT22 cells were co-treated with Aβ aggregates and HYP (20–80 μM) for 24 h and washed with PBS. Each digested sample was re-suspended in 10 mL of ice-cold PBS, followed by centrifugation for 5 min (300 g, 4 °C). Cell pellets were then treated with 85% cold methanol (2 × 10^6 cells / 100 μL) containing 2 μM ATP-^13C10,^15N5, then vortexed for 1 min and placed on ice for 10 min. After centrifugation (13,000 g) at 4 °C for 15 min, the supernatant was transferred into another tube. The derivatization reaction was initiated by adding 75 μL of derivatization reagent MTBSTFA into 200 μL of cell lysis with 85% methanol and completed over 5 min with consistent vortex. Derivatization samples were then centrifuged (13,000 g) at 4 °C for 10 min, and 25 μL of the supernatant was injected into LC-MS/MS system for analysis.

[5] = tested on: APP/PS1 mice; assay: Dot blot of Aβ forms in cortex and hippocampus lysates; type: in vivo
Experimental: 4 μL of prepared cell or animal sample protein solutions were dotted for adsorption onto methanol-pre-activated PVDF membranes and then blocked with 5% non-fat dry milk in Tris-buffered saline and Tween 20 for 1 h. The samples were incubated overnight at 4 °C with anti-amyloid fibril primary antibody [mOC87] (Abcam, MA, USA), anti-amyloid oligomer A11 (Invitrogen, CA, USA) or purified anti-β-amyloid (1–16) antibody (clone 6E10) (Biolegend, CA, USA) (1:1000), followed by HRP-conjugated secondary antibody. Protein bands were detected using Super Signal Sensitive ECL Western Blotting Detection Reagent (Beyotime, Beijing, China) and observed using a gel imaging device (Amersham Imager 800, GE, Tokyo, Japan). All animal care and experimental procedures were performed in accordance with the “Institutional Animal Care and User Committee Guidelines” of the Macau University of Science and Technology. APP/PSEN1 (APP/PS1) mice (N000175) were purchased from the Nanjing Institute of Biomedical Sciences, Nanjing University, China, weighing 25 ± 5 g. The animals were housed in a temperature-controlled room with a 12 h light/dark cycle and given ad libitum food and water. Male mice were randomly divided into the following 6 experimental groups. […]

O=c1c(O[C@@H]2O[C@H](CO)[C@H](O)[C@H](O)[C@H]2O)c(-c2ccc(O)c(O)c2)oc2cc(O)cc(O)c12 [HYP, Quercetin-3-O-β-D-galactopyranoside]
freezing time in fear conditioning test [1]: significantly decreased the freezing time | level of BACE1 and APP-β proteins [2]: reduced the level of APP hydrolysis pathway-associated proteins such as BACE1 and APP-β | solubility in water [3]: insoluble in water | ATP content [4]: rescued the Aβ-induced decrease in mitochondrial ATP | level of oligomeric, fibrillar and total Aβ (dot blot) [5]: reduced the level of both oligomeric and fibrillar form of Aβ, without altering the level of total Aβ
